Measured values reported in patent US20120178765A1, “NOVEL GLUCOKINASE ACTIVATORS AND PROCESSES FOR THE PREPARATION THEREOF” (YUHAN CORPORATION, priority 2009, published 2012).

The molecules below were run against T1, Glucokinase (Homo sapiens, UniProt P35557) (assay: Glucokinase activation assay (NADPH absorbance at 340 nm)). Settings: glucokinase (ProteinOne Inc.), 5 mM D(+)-glucose, 24° C., 90 minutes.
T1 construct: purchased ProteinOne Inc
T1 sequence (P35557 1-465): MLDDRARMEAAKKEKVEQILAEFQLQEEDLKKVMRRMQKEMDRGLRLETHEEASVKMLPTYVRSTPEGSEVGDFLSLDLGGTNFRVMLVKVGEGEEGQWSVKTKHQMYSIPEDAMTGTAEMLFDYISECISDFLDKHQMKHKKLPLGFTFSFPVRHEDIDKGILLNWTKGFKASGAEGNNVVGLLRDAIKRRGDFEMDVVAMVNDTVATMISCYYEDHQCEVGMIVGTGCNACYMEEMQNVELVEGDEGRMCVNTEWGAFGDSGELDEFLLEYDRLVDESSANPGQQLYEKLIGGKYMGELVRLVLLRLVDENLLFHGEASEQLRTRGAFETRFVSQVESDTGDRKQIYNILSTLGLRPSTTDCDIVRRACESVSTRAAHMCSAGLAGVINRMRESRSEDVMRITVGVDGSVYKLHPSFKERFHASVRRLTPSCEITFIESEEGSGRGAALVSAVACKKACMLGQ
Type: biochemical
Method: The amounts of glucokinase activation were determined by measuring the levels of NADPH (the final metabolite of glucose through glucokinase-mediated phospho-rylation) and then calculating to glucokinase activities.
Glucokinase (ProteinOne Inc.) was added, in the concentration of 100 ng/uL, to a enzyme-reaction medium (25 mM HEPES pH 7, 25 mM KCL, 1 mM MgCl, 5 mM D(+)-glucose, 1 mM ATP, 1 mM NADP, 1 mM DTT, and 2.5 u/mL G6PDH). Each compound in predetermined concentrations was added to the enzyme-reaction medium and then absorbance (First Absorbance) was measured at 340 nm of wavelength. After measuring the first absorbance, each reaction mixture was incubated at 24° C. for 90 minutes and then absorbance (Second Absorbance) was re-measured at 340 nm of wavelength. Using changes between First Absorbance and Second Absorbance, glucokinase activity was calculated. In the calculation, a maximum activity of the test compound (Emax), in comparison to the control group (no treatment of compound) was determined and then EC50 was calculated using the software for statistical analysis “Prism”, based on the activity-changes according to concentrations of the test compounds.
The amounts of glucokinase activation of the compounds of Comparative Examples 1 and 2 were determined, in accordance with the same procedures as in Test Example 1.

Row | Molecule | EC50 [nM]
1 | 3-{2-[3-(4-chlorobenzoylamino)phenyl]ethyl}-5-(2-methoxy-(1S)-methyl-ethoxy)-N-(t hiazol-2-yl)-benzamide [Example 126] | 364
2 | COc1ccc(/C=C/c2cc(OCC(C)C)cc(C(=O)Nc3nccs3)c2)cc1OC [Example 4, 3-[trans-2-(3,4-dimethoxyphenyl)vinyl]-5-isobutoxy-N-(thiazol-2-yl)-benzamide] | 222
3 | 3-[trans-2-(2-methoxyphenyl)vinyl]-5-(2-methoxy-(1S)-methyl-ethoxy)-N-(1-methyl-1H-pyrazol-3-yl)-benzamide [Example 83] | 115
4 | COC[C@H](C)Oc1cc(CCc2ccccc2F)cc(C(=O)Nc2ccn(C)n2)c1 [Example 94, 3-[2-(2-fluorophenyl)ethyl]-5-(2-methoxy-(1S)-methyl-ethoxy)-N-(1-methyl-1-pyrazol-3-yl)-benzamide] | 217
5 | COc1cccc(/C=C/c2cc(OCC(C)C)cc(C(=O)Nc3nccs3)c2)c1OC [Example 5, 3-[trans-2-(2,3-dimethoxyphenyl)vinyl]-5-isobutoxy-N-(thiazol-2-yl)-benzamide] | 173
6 | 3-[trans-2-(4-bromophenyl)vinyl]-5-(2-methoxy-(1S)-methyl-ethoxy)-N-(pyrazin-2-yl)-benzamide [Example 60] | 397
7 | COC[C@H](C)Oc1cc(CCc2cccc(N)c2)cc(C(=O)Nc2ccn(C)n2)c1 [Example 97, 3-[2-(3-aminophenyl)ethyl]-5-(2-methoxy-(1S)-methyl-ethoxy)-N-(1-methyl-1-pyrazol-3-yl)-benzamide] | 415
8 | COC[C@H](C)Oc1cc(/C=C/c2ccccc2Cl)cc(C(=O)Nc2ccn(C)n2)c1 (stereo in doubt) [Example 46, 3-[trans-2-(2-chlorophenyl)vinyl]-5-(2-methoxy-(1S)-methyl-ethoxy)-N-(1-methyl-1H-pyrazol-3-yl)-benzamide] | 149
9 | 3-{2-[4-(4-fluorobenzoylamino)phenyl]ethyl}-5-(2-methoxy-(1S)-methyl-ethoxy)-N-(t hiazol-2-yl)-benzamide [Example 139] | 371
10 | 3-[trans-2-(4-fluorophenyl)vinyl]-5-(2-methoxy-(1S)-methyl-ethoxy)-N-(thiazol-2-yl)-benzamide [Example 8] | 86.4
11 | 3-[trans-2-(2,4-difluorophenyl)vinyl]-5-(2-methoxy-(1S)-methyl-ethoxy)-N-(pyrazin-2-yl)-benzamide [Example 56] | 301
12 | CCOC(=O)Nc1ccccc1CCc1cc(O[C@@H](C)COC)cc(C(=O)Nc2nccs2)c1 [Example 117, 3-{2-[2-(carbamic acid ethyl ester)phenyl]ethyl}-5-(2-methoxy-(1S)-methyl-ethoxy)-N-(thiazol-2-yl)-benzamide] | 229
13 | COC[C@H](C)Oc1cc(CCc2ccc(NC(=O)c3ccncc3)cc2)cc(C(=O)Nc2nccs2)c1 [Example 142, 3-[2-(4-isonicotinamidephenyl)ethyl]-5-(2-methoxy-(1S)-methyl-ethoxy)-N-(thiazol-2-yl)-benzamide] | 357
14 | 3-[trans-2-(3-nitrophenyl)vinyl]-5-(2-methoxy-(1S)-methyl-ethoxy)-N-(5-fluorothiazol-2-yl)-benzamide [Example 20] | 123
15 | 3-[2-(4-acetylaminophenyl)ethyl]-5-(2-methoxy-(1S)-methyl-ethoxy)-N-(thiazol-2-yl)-benzamide [Example 132] | 354
16 | CCOC(=O)CC(=O)Nc1ccc(CCc2cc(O[C@@H](C)COC)cc(C(=O)Nc3nccs3)c2)cc1 [Example 135, 3-{2-[4-(malonamic acid ethyl ester)phenyl]ethyl}-5-(2-methoxy-(1S)-methyl-ethoxy)-N-(thiazol-2-yl)-benzamide] | 204
17 | 3-[2-(3-butyrylaminophenyl)ethyl]-5-(2-methoxy-(1S)-methyl-ethoxy)-N-(thiazol-2-yl)-benzamide [Example 119] | 370

Row | Molecule | EC50 [nM]
18 | 3-[trans-2-(4-fluorophenyl)vinyl]-5-(2-methoxy-(1S)-methyl-ethoxy)-N-(5-fluorothiazol-2-yl)-benzamide [Example 23] | 41.1
19 | 3-[2-(3-aminophenyl)ethyl]-5-(2-methoxy-(1S)-methyl-ethoxy)-N-(thiazol-2-yl)-benzamide [Example 91] | 68.9
20 | 3-[trans-2-(3-chlorophenyl)vinyl]-5-(2-methoxy-(1S)-methyl-ethoxy)-N-(pyrazin-2-yl)-benzamide [Example 54] | 382
21 | 3-[2-(2,3-dimethoxyphenyl)ethyl]-5-(2-methoxy-(1S)-methyl-ethoxy)-N-(1-methyl-1H-pyrazol-3-yl)-benzamide [Example 103] | 448
22 | COC[C@H](C)Oc1cc(/C=C/c2c(F)cccc2F)cc(C(=O)Nc2ccn(C)n2)c1 (stereo in doubt) [Example 37, 3-[trans-2-(2,6-difluorophenyl)vinyl]-5-(2-methoxy-(1S)-methyl-ethoxy)-N-(1-methyl-1H-pyrazol-3-yl)-benzamide] | 161
23 | 3-[trans-2-(3,5-dimethoxyphenyl)vinyl]-5-(2-methoxy-(1S)-methyl-ethoxy)-N-(pyrazin-2-yl)-benzamide [Example 50] | 311
24 | COC[C@H](C)Oc1cc(/C=C/c2ccc(F)cc2F)cc(C(=O)Nc2ccc(C(=O)OC)cn2)c1 [Example 67, 3-[trans-2-(2,4-difluorophenyl)vinyl]-5-(2-methoxy-(1S)-methyl-ethoxy)-N-(nicotinic acid-3-methyl ester-6-yl)-benzamide] | 231
25 | CC(C)/C=C\c1cc(OC(C)C)cc(C(=O)Nc2ncc(C(=O)O)s2)c1 [Comparative Example 2, reference compound] | 1870
26 | 3-[2-(4-butyrylaminophenyl)ethyl]-5-(2-methoxy-(1S)-methyl-ethoxy)-N-(thiazol-2-yl)-benzamide [Example 133] | 322
27 | 3-{2-[3-(3-methyl-butyrylamino)phenyl]ethyl}-5-(2-methoxy-(1S)-methyl-ethoxy)-N-(thiazol-2-yl)-benzamide [Example 120] | 473
28 | 3-[trans-2-(2-chlorophenyl)vinyl]-5-(2-methoxy-(1S)-methyl-ethoxy)-N-(pyrazin-2-yl)-benzamide [Example 53] | 503
29 | 3-{2-[3-(3-phenyl-ureido)phenyl]ethyl}-5-(2-methoxy-(1S)-methyl-ethoxy)-N-(thiazol-2-yl)-benzamide [Example 130] | 227
30 | 3-[trans-2-(2,3-dimethoxyphenyl)vinyl]-5-(2-methoxy-(1S)-methyl-ethoxy)-N-(5-fluorothiazol-2-yl)-benzamide [Example 28] | 118
31 | 3-[trans-2-(2-fluorophenyl)vinyl]-5-(2-methoxy-(1S)-methyl-ethoxy)-N-(5-fluorothiazol-2-yl)-benzamide [Example 22] | 65.6
32 | 3-{2-[4-(3-ethyl-thio-ureido)phenyl]ethyl}-5-(2-methoxy-(1S)-methyl-ethoxy)-N-(thiazol-2-yl)-benzamide [Example 146] | 454
33 | COC[C@H](C)Oc1cc(/C=C/c2ccc(F)cc2F)cc(C(=O)Nc2ccc(C(=O)O)cn2)c1 [Example 79, 3-[trans-2-(2,4-difluorophenyl)vinyl]-5-(2-methoxy-(1S)-methyl-ethoxy)-N-(nicotinic acid-6-yl)-benzamide] | 95.1
